Laboratory results from US20230270870A1, “DOSAGE OF AN ANTIBODY-DRUG CONJUGATE” (DAIICHI SANKYO COMPANY, LIMITED, priority 2019, published 2023).
Like-named read-outs stand apart in the source and are kept apart here.

How the values were obtained:
[1] = Phase 1 clinical study: pharmacokinetics; assay type: in vivo; settings: human, plasma, intravenous
Method: Preliminary single- and multiple-dose PK were evaluated using noncompartmental analysis in 61 subjects who received DS-1062a (0.27 mg/kg to 10 mg/kg).

[2] = target: T1, topoisomerase I (Homo sapiens, UniProt P11387); settings: cited from earlier work
T1 sequence (P11387 1-765): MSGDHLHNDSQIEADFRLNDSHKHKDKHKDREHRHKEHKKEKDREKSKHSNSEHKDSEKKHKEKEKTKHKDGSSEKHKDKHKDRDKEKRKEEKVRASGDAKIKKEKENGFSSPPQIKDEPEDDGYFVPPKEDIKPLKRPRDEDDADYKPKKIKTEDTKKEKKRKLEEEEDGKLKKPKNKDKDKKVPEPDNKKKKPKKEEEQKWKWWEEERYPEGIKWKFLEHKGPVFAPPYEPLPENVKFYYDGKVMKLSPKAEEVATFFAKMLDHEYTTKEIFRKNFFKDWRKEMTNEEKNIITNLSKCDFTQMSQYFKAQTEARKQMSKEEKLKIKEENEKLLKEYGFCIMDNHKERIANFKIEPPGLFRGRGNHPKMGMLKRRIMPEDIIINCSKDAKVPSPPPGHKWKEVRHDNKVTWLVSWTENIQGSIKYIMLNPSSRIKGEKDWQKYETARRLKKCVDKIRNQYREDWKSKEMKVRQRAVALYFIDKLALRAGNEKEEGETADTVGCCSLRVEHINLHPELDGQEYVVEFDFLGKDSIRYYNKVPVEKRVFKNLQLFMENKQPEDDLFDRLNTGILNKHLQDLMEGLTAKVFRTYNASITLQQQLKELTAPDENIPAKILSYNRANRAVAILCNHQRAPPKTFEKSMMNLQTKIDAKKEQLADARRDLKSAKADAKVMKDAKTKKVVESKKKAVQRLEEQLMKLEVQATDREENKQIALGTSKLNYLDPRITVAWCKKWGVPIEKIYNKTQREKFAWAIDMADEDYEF

[3] = tested on: NSCLC; settings: NSCLC progressed during or after platinum-based doublet chemotherapy, N=290; cited from earlier work
[4] = tested on: NSCLC; settings: phase 2, subjects who received standard of care; cited from earlier work

## CC[C@@]1(O)C(=O)OCc2c1cc1n(c2=O)Cc2c-1nc1cc(F)c(C)c3c1c2[C@@H](NC(=O)CO)CC3 [Compound 1, HO—CH2—C(═O)—(NH—DX)]
[1]
  exposure of released drug compared with DS-1062a: lower than that of DS-1062a
[2]
  topoisomerase I inhibitory effect: topoisomerase I inhibitory effect

## CC(=O)O[C@@]12CO[C@@H]1C[C@H](O)[C@@]1(C)C(=O)[C@H](O)C3=C(C)[C@@H](OC(=O)[C@H](O)[C@@H](NC(=O)OC(C)(C)C)c4ccccc4)C[C@@](O)([C@@H](OC(=O)c4ccccc4)[C@H]21)C3(C)C [Docetaxel monotherapy, Docetaxel]
[3]
  DCR: 54.0% (158/290) (not provided)
  ORR: 12.0% (36/290) (9.0% to 17.0%)

## Sactizumab govitecan
[4]
  ORR: 19%
